Reference: patent US9133496B2, “Material for screening for compound acting on ion channel and use thereof” (priority 2010, dated 2015)

Columns and labels:
HEK-Kir cells = experiment: Membrane potential of HEK-Kir cells, current clamp method; type: cell-based, human; conditions: 100 μM Ba ions, resting potential about −70 mV before, FIG. 2B
Kir 2.1 channel = target: T1, Kir 2.1 channel (Homo sapiens, UniProt P63252); experiment: Kir channel current in HEK-Kir cells, voltage clamp method; type: cell-based; conditions: 100 μM Ba ions, FIG. 2A
T1 construct: expressed in transfected cells
T1 sequence (P63252 1-427): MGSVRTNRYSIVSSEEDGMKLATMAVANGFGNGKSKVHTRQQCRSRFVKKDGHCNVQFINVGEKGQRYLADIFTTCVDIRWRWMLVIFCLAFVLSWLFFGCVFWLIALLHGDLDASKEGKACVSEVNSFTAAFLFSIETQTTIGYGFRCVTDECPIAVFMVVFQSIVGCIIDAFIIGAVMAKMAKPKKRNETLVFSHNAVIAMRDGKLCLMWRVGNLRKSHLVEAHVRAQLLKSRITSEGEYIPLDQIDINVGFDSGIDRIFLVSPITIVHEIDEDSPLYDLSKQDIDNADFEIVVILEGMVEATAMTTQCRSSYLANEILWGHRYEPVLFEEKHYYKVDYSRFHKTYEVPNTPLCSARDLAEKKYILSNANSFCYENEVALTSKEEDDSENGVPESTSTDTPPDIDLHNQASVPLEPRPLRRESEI
Method: (§1) Human-derived embryonic kidney cells (HEK293 cells) were purchased from the Health Sciences Research Resource Bank (HSRRB). 10% FBS (Gibco Corp.) was added thereto followed by culturing at 37° C. in 5% CO2 in D-MEM medium (Wako Pure Chemical Industries, Ltd.) containing 100 U/ml penicillin (Wako Pure Chemical Industries, Ltd.) and 100 μg/ml streptomycin (Meiji Seika Kaisha, Ltd.). pcDNA/Kir 2.1, obtained by subcloning human-derived Kir 2.1 (NM_00891.2) in pcDNA3.1(+) (Invitrogen Corp.), was inserted using Lipofectamine 2000 reagent (Invitrogen Corp.) followed by culturing in medium obtained by adding 0.2 mg/ml Zeocin (Invitrogen Corp.) to the above-mentioned D-MEM medium and then cloning Zeocin resistant cells to produce Kir 2.1 constantly expressing cells (HEK-Kir). In addition, the inactivated mutant Nav-QQQ (HEK-Kir-mutated Nay) was inserted into the Kir 2.1 constantly expressing cells using the same method followed by conducting experiments 24 to 72 hours later.
Kir channel current was measured by applying the voltage clamp method to HEK-Kir cells.

[1] = system: HEK-Kir-mutated Nav cells; experiment: DiBAC4(3) membrane potential fluorescence under high K+ stimulation in HEK-Kir-mutated Nav cells; type: cell-based, human; conditions: 1 mM lidocaine, extracellular K ion 5.9 mM to 15.3 mM, FIG. 17
Method: In the present example, a study was conducted on measurement of membrane potential using a membrane potential-sensitive dye in the form of DiBAC4(3), and using an extracellular solution containing K ions at a high concentration for depolarizing stimulation.
After loading two types of cells (HEK and HEK-Kir-mutated Nav cells) with 100 nM DiBAC4(3) (bis(1,3-dibutylbarbituric acid)trimethine oxanol) in normal HEPES buffer containing the dye for 30 minutes at room temperature, and fluorescence was measured at 520 nm or higher by exciting at 488 nm and reflecting with a dichroic mirror at 505 nm. In addition, high K^+ extracellular fluid having an increased K ion concentration was used as a stimulus to depolarize the cell membrane. This is because K ions are primarily involved in formation of resting membrane potential. […] In the present example, changes in fluorescence intensity of two types of cells were measured using this depolarizing stimulus. Furthermore, measurements were carried out based on a value of 1 for fluorescence intensity in the case of making the extracellular K ion concentration to be 140 mM K^+. The Argus/HiSCA high-speed, cooled CCD camera fluorescent imaging system (Hamamatsu Photonics K.K.) was used to measure fluorescence.

[2] = system: HEK-Kir-mutated Nav cells; experiment: Cell death by electrical stimulation, MTT method, HEK-Kir-mutated Nav cells; type: cell-based, human; conditions: square wave 80 mA, 200 ms, three times at 3 min intervals, FIG. 6
Method: as §1, with “In addition, the inactivated mutant Nav-QQQ (HEK-Kir-mutated Nay) was inserted into the Kir 2.1 constantly expressing cells using the same method followed by conducting experiments 24 to 72 hours later.” left out
It was clearly determined from the results described in section 2 above that an extremely long action potential is generated in the mutant type Nav 1.5 channel. Since there is thought to be the possibility of cell death occurring when the action potential is generated by electrical stimulation, cell death attributable to electrical stimulation was measured. […] On the basis thereof, cell death was determined to occur in HEK-Kir-mutated Nav cells as a result of generating an extremely long action potential, while inhibition of Na ion channels blocked cell death.

Row | SMILES | resting membrane potential (HEK-Kir cells) | inward Kir channel current (Kir 2.1 channel) | changes in fluorescence caused by high K+ stimulation [1] | occurrence of cell death attributable to electrical stimulation [2]
1 | [Ba+2] [Ba ions] | became shallow | inhibited | – | –
2 | CCN(CC)CC(=O)Nc1c(C)cccc1C [lidocaine] | – | – | inhibited | inhibited
